The source made the active and inactive calls. How the calls were made is not given here.
Assay: T. brucei MetRS enzyme inhibitors, late-stage follow-up, biochemical, radioactivity, assay provider, round 2 (AID 1053198)
Settings: purified enzyme, radiolabel aminoacylation, 120 min, stronger effect = higher value

`CCN(CC)C(=O)C(=O)c1cn(CC(=O)Nc2cc(Oc3ccccc3)cc(C(F)(F)F)c2)c2ccccc12` gave an inhibition (at 10 µM) of 98.3% and an inhibition (inhibition, at 1 µM) of 95.6%.
Work on `CCN(CC)C(=O)C(=O)c1cn(CC(=O)Nc2cc(Br)cc(C(F)(F)F)c2)c2ccccc12` yielded an inhibition (at 10 µM) of 101% and an inhibition (inhibition, at 1 µM) of 95.8%.
In the case of `CCN(CC)C(=O)C(=O)c1cn(CC(=O)Nc2cccc(C(F)(F)F)c2)c2cc(OC)ccc12`, the inhibition (at 10 µM) is reported as 4.41% (inactive) and the inhibition (inhibition, at 1 µM) is reported as -4.41%.
`CCN(CC)C(=O)C(=O)c1cn(CC(=O)Nc2cc(Cl)cc(C(F)(F)F)c2)c2ccccc12` showed an inhibition (at 10 µM) of 100% and an inhibition (inhibition, at 1 µM) of 95.2%.
Compound `CCN(CC)C(=O)C(=O)c1cn(CC(=O)Nc2cc(C)cc(C(F)(F)F)c2)c2ccccc12` has an inhibition (at 10 µM) of 100% and an inhibition (inhibition, at 1 µM) of 96.2%.
Work on `CCN(CC)C(=O)C(=O)c1cn(CC(=O)Nc2cc(C(F)(F)F)cc(C(F)(F)F)c2)c2ccccc12` yielded an inhibition (at 10 µM) of 100% and an inhibition (inhibition, at 1 µM) of 90.3%.
